Test results: ChEMBL document CHEMBL1629662, “Antimicrobial activity of prulifloxacin tested against a worldwide collection of gastroenteritis-producing pathogens, including those causing traveler's diarrhea” (2009)
Values after ≈ are worked out from the molar mass of the structure shown.

Legend:
Campylobacter sp. [1] = assay: Antibacterial activity against Campylobacter sp. assessed as growth inhibition at 0.06 ug/ml by broth microdilution method; type: functional
Escherichia coli [2] = assay: Antibacterial activity against Escherichia coli by broth microdilution method; type: functional
Salmonella typhimurium = assay: Antibacterial activity against Salmonella enterica serovar Typhimurium assessed as percent resistant isolates by broth microdilution method; type: functional, Salmonella enterica subsp. enterica serovar Typhimurium; conditions: pooled result: one value given for 8 cell lines, strains, targets or settings
Salmonella enteritidis = assay: Antibacterial activity against Salmonella enterica serovar Enteritidis assessed as percent susceptible isolates by broth microdilution method; type: functional, Salmonella enterica subsp. enterica serovar Enteritidis; conditions: pooled result: one value given for 5 cell lines, strains, targets or settings
Salmonella paratyphi = assay: Antibacterial activity against Salmonella enterica serovar Paratyphi assessed as percent susceptible isolates by broth microdilution method; type: functional, Salmonella enterica subsp. enterica serovar Paratyphi A
[3] = Antibacterial activity against Salmonella enterica serovar Virchow by broth microdilution method; type: functional, Salmonella enterica subsp. enterica serovar Virchow
Shigella flexneri = assay: Antibacterial activity against Shigella flexneri by broth microdilution method; type: functional
Shigella boydii [4] = assay: Antibacterial activity against Shigella boydii by broth microdilution method; type: functional
Shigella boydii [5] = assay: Antibacterial activity against Shigella boydii assessed as percent susceptible isolates by broth microdilution method; type: functional; conditions: pooled result: one value given for 3 cell lines, strains, targets or settings
Shigella dysenteriae = assay: Antibacterial activity against Shigella dysenteriae by broth microdilution method; type: functional
[6] = system: Yersinia pseudotuberculosis; assay: Antibacterial activity against Yersinia pseudotuberculosis assessed as percent susceptible isolates by broth microdilution method; type: functional
Aeromonas hydrophila = assay: Antibacterial activity against Aeromonas hydrophila assessed as percent susceptible isolates by broth microdilution method; type: functional
Aeromonas caviae [7] = assay: Antibacterial activity against Aeromonas caviae assessed as percent susceptible isolates by broth microdilution method; type: functional
Aeromonas caviae [8] = assay: Antibacterial activity against Aeromonas caviae assessed as percent resistant isolates by broth microdilution method; type: functional
Aeromonas sobria [9] = assay: Antibacterial activity against Aeromonas sobria assessed as percent susceptible isolates by broth microdilution method; type: functional
Aeromonas sobria [10] = assay: Antibacterial activity against Aeromonas sobria assessed as percent resistant isolates by broth microdilution method; type: functional
Aeromonas veronii = assay: Antibacterial activity against Aeromonas veronii assessed as percent susceptible isolates by broth microdilution method; type: functional
Vibrio cholerae [11] = assay: Antibacterial activity against Vibrio cholerae assessed as percent susceptible isolates by broth microdilution method; type: functional
Vibrio cholerae [12] = assay: Antibacterial activity against Vibrio cholerae assessed as percent resistant isolates by broth microdilution method; type: functional
Vibrio parahaemolyticus [13] = assay: Antibacterial activity against Vibrio parahaemolyticus assessed as percent susceptible isolates by broth microdilution method; type: functional
Vibrio parahaemolyticus [14] = assay: Antibacterial activity against Vibrio parahaemolyticus assessed as percent resistant isolates by broth microdilution method; type: functional
Vibrio alginolyticus [15] = assay: Antibacterial activity against Vibrio alginolyticus by broth microdilution method; type: functional
Vibrio alginolyticus [16] = assay: Antibacterial activity against Vibrio alginolyticus assessed as percent resistant isolates by broth microdilution method; type: functional
Vibrio fluvialis [17] = assay: Antibacterial activity against Vibrio fluvialis by broth microdilution method; type: functional
Vibrio fluvialis [18] = assay: Antibacterial activity against Vibrio fluvialis assessed as percent susceptible isolates by broth microdilution method; type: functional
Vibrio vulnificus = assay: Antibacterial activity against Vibrio vulnificus by broth microdilution method; type: functional
Campylobacter jejuni = assay: Antibacterial activity against Campylobacter jejuni by broth microdilution method; type: functional
Escherichia coli [19] = assay: Antibacterial activity against enteropathogenic Escherichia coli by broth microdilution method; type: functional
Escherichia coli [20] = assay: Antibacterial activity against enteropathogenic Escherichia coli assessed as percent susceptible isolates by broth microdilution method; type: functional
Escherichia coli [21] = assay: Antibacterial activity against enteropathogenic Escherichia coli assessed as percent resistant isolates by broth microdilution method; type: functional
Escherichia coli [22] = assay: Antibacterial activity against blood-borne Escherichia coli by broth microdilution method; type: functional
Escherichia coli [23] = assay: Antibacterial activity against Escherichia coli assessed as growth inhibition at =<0.002 ug/ml by broth microdilution method; type: functional
Escherichia coli [24] = assay: Antibacterial activity against Escherichia coli assessed as growth inhibition at 0.03 ug/ml by broth microdilution method; type: functional
Escherichia coli [25] = assay: Antibacterial activity against Escherichia coli assessed as growth inhibition at 0.06 ug/ml by broth microdilution method; type: functional
Salmonella sp. [26] = assay: Antibacterial activity against Salmonella sp. assessed as growth inhibition at =<0.002 ug/ml by broth microdilution method; type: functional
Salmonella sp. [27] = assay: Antibacterial activity against Salmonella sp. assessed as growth inhibition at 0.06 ug/ml by broth microdilution method; type: functional
Shigella sp. [28] = assay: Antibacterial activity against Shigella sp. assessed as growth inhibition at =<0.002 ug/ml by broth microdilution method; type: functional
Shigella sp. [29] = assay: Antibacterial activity against Shigella sp. assessed as growth inhibition at 0.12 ug/ml by broth microdilution method; type: functional
Yersinia sp. [30] = assay: Antibacterial activity against Yersinia sp. assessed as growth inhibition at =<0.002 ug/ml by broth microdilution method; type: functional
Yersinia sp. [31] = assay: Antibacterial activity against Yersinia sp. assessed as growth inhibition at 0.004 ug/ml by broth microdilution method; type: functional; conditions: Yersinia sp. (in: enterobacteria)
Yersinia sp. [32] = assay: Antibacterial activity against Yersinia sp. assessed as growth inhibition at 0.008 ug/ml by broth microdilution method; type: functional; conditions: Yersinia sp. (in: enterobacteria)
Yersinia sp. [33] = assay: Antibacterial activity against Yersinia sp. assessed as growth inhibition at 0.12 ug/ml by broth microdilution method; type: functional; conditions: Yersinia sp. (in: enterobacteria)
Aeromonas sp. [34] = assay: Antibacterial activity against Aeromonas sp. assessed as growth inhibition at 0.03 ug/ml by broth microdilution method; type: functional
Aeromonas sp. [35] = assay: Antibacterial activity against Aeromonas sp. assessed as growth inhibition at 0.12 ug/ml by broth microdilution method; type: functional
Aeromonas sp. [36] = assay: Antibacterial activity against Aeromonas sp. assessed as growth inhibition at 1 ug/ml by broth microdilution method; type: functional
Aeromonas sp. [37] = assay: Antibacterial activity against Aeromonas sp. assessed as growth inhibition at =>4 ug/ml by broth microdilution method; type: functional
Vibrio sp. [38] = assay: Antibacterial activity against Vibrio sp. assessed as growth inhibition at =<0.002 ug/ml by broth microdilution method; type: functional
Vibrio sp. [39] = assay: Antibacterial activity against Vibrio sp. assessed as growth inhibition at 0.016 ug/ml by broth microdilution method; type: functional
Vibrio sp. [40] = assay: Antibacterial activity against Vibrio sp. assessed as growth inhibition at 0.03 ug/ml by broth microdilution method; type: functional
Campylobacter sp. [41] = assay: Antibacterial activity against Campylobacter sp. assessed as growth inhibition at =<0.002 ug/ml by broth microdilution method; type: functional
Campylobacter sp. [42] = assay: Antibacterial activity against Campylobacter sp. assessed as growth inhibition at 0.008 ug/ml by broth microdilution method; type: functional
[43] = Escherichia coli, read-out: MIC50
[44] = Escherichia coli, read-out: MIC90

SMILES: CC1Sc2c(C(=O)O)c(=O)c3cc(F)c(N4CCNCC4)cc3n21 (configuration not stated) [ULIFLOXACIN]
- inhibition at 0.06 µg/mL (Campylobacter sp. [1]): 77%
- MIC50 (Escherichia coli [2]): 8 ng/mL (≈ 0.0229 µM)
- MIC90 (Escherichia coli [2]): 8 ng/mL (≈ 0.0229 µM)
- Activity (Salmonella typhimurium): 0%
- Activity (Salmonella enteritidis): 100%
- Activity (Salmonella paratyphi): 100%
- MIC50 [3]: 8 ng/mL (≈ 0.0229 µM)
- MIC90 [3]: 30 ng/mL (≈ 0.0859 µM)
- MIC50 (Shigella flexneri): 4 ng/mL (≈ 0.0114 µM)
- MIC90 (Shigella flexneri): 8 ng/mL (≈ 0.0229 µM)
- MIC50 (Shigella boydii [4]): 4 ng/mL (≈ 0.0114 µM)
- MIC90 (Shigella boydii [4]): 8 ng/mL (≈ 0.0229 µM)
- Activity (Shigella boydii [5]): 100%
- MIC50 (Shigella dysenteriae): 4 ng/mL (≈ 0.0114 µM)
- MIC90 (Shigella dysenteriae): 8 ng/mL (≈ 0.0229 µM)
- Activity [6]: 100%
- Activity (Aeromonas hydrophila): 98%
- Activity (Aeromonas caviae [7]): 98%
- Activity (Aeromonas caviae [8]): 2%
- Activity (Aeromonas sobria [9]): 98%
- Activity (Aeromonas sobria [10]): 2%
- Activity (Aeromonas veronii): 98%
- Activity (Vibrio cholerae [11]): 100%
- Activity (Vibrio cholerae [12]): 0%
- Activity (Vibrio parahaemolyticus [13]): 100%
- Activity (Vibrio parahaemolyticus [14]): 0%
- MIC50 (Vibrio alginolyticus [15]): 16 ng/mL (≈ 0.0458 µM)
- MIC90 (Vibrio alginolyticus [15]): 30 ng/mL (≈ 0.0859 µM)
- Activity (Vibrio alginolyticus [16]): 0%
- MIC50 (Vibrio fluvialis [17]): 16 ng/mL (≈ 0.0458 µM)
- MIC90 (Vibrio fluvialis [17]): 30 ng/mL (≈ 0.0859 µM)
- Activity (Vibrio fluvialis [18]): 100%
- MIC50 (Vibrio vulnificus): 16 ng/mL (≈ 0.0458 µM)
- MIC90 (Vibrio vulnificus): 30 ng/mL (≈ 0.0859 µM)
- MIC50 (Campylobacter jejuni): 30 ng/mL (≈ 0.0859 µM)
- MIC90 (Campylobacter jejuni): > 2000 ng/mL
- MIC (Escherichia coli [19]): 4 ng/mL (≈ 0.0114 µM)
- MIC50 (Escherichia coli [19]): 8 ng/mL (≈ 0.0229 µM)
- MIC90 (Escherichia coli [19]): 8 ng/mL (≈ 0.0229 µM)
- MIC50 (Escherichia coli [19]; [43]): 8 ng/mL (≈ 0.0229 µM)
- MIC90 (Escherichia coli [19]; [44]): 8 ng/mL (≈ 0.0229 µM)
- Activity (Escherichia coli [20]): 100%
- Activity (Escherichia coli [21]): 0%
- MIC50 (Escherichia coli [22]): 8 ng/mL (≈ 0.0229 µM)
- MIC90 (Escherichia coli [22]): 60 ng/mL (≈ 0.172 µM)
- MIC50 (Escherichia coli [22]; [43]): 8 ng/mL (≈ 0.0229 µM)
- MIC90 (Escherichia coli [22]; [44]): 60 ng/mL (≈ 0.172 µM)
- inhibition (INH) (Escherichia coli [23]): 0%
- inhibition at 0.03 µg/mL (Escherichia coli [24]): 96%
- inhibition at 0.06 µg/mL (Escherichia coli [25]): 97%
- inhibition (INH) (Salmonella sp. [26]): 1%
- inhibition at 0.06 µg/mL (Salmonella sp. [27]): 97%
- inhibition (INH) (Shigella sp. [28]): 1%
- inhibition at 0.12 µg/mL (Shigella sp. [29]): 100%
- inhibition (INH) (Yersinia sp. [30]): 0%
- inhibition at 0.004 µg/mL (Yersinia sp. [31]): 0%
- inhibition at 0.008 µg/mL (Yersinia sp. [32]): 56%
- inhibition at 0.12 µg/mL (Yersinia sp. [33]): 100%
- inhibition at 0.03 µg/mL (Aeromonas sp. [34]): 87%
- inhibition at 0.12 µg/mL (Aeromonas sp. [35]): 93%
- inhibition at 1 µg/mL (Aeromonas sp. [36]): 98%
- inhibition (INH) (Aeromonas sp. [37]): 100%
- inhibition (INH) (Vibrio sp. [38]): 15%
- inhibition at 0.016 µg/mL (Vibrio sp. [39]): 65%
- inhibition at 0.03 µg/mL (Vibrio sp. [40]): 100%
- inhibition (INH) (Campylobacter sp. [41]): 0%
- inhibition at 0.008 µg/mL (Campylobacter sp. [42]): 2%
